Data published in PubChem BioAssay (NCI).
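Where inhibition never reached the appropriate level, the endpoint shown equals the highest concentration tested. Otherwise, values were interpolated linearly from a five-concentration, 48-hour dose response in 96-well plates. GI50: concentration for 50% inhibition of growth. TGI: total growth inhibition.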

How the values were obtained:
Experiment in all cases: inhibition of tumour cell growth, NCI panel, 48 h; in the data active = GI50 below about 0.43 µM; inactive = the rest
MCF7 breast = system: MCF7 breast
SK-MEL-28 melanoma = system: SK-MEL-28 melanoma
SK-OV-3 ovarian = system: SK-OV-3 ovarian
EKVX NSCLC = system: EKVX NSCLC
HOP-62 NSCLC = system: HOP-62 NSCLC
T-47D breast = system: T-47D breast
NCI-H23 lung = system: NCI-H23 lung
SN12C renal = system: SN12C renal
ACHN renal = system: ACHN renal
HS 578T breast = system: HS 578T breast
NCI-H226 lung = system: NCI-H226 lung
MDA-MB-231 breast = system: MDA-MB-231 breast
DU-145 prostate = system: DU-145 prostate
MALME-3M melanoma = system: MALME-3M melanoma
RXF 393 renal = system: RXF 393 renal
HT29 colon = system: HT29 colon
MDA-MB-468 breast = system: MDA-MB-468 breast
M14 melanoma = system: M14 melanoma
786-0 renal = system: 786-0 renal
SF-539 CNS = system: SF-539 CNS
K-562 leukemia = system: K-562 leukemia
SW-620 colon = system: SW-620 colon
UACC-62 melanoma = system: UACC-62 melanoma
OVCAR-4 ovarian = system: OVCAR-4 ovarian
SNB-19 CNS = system: SNB-19 CNS
HCT-116 colon = system: HCT-116 colon
TK-10 renal = system: TK-10 renal
NCI-H522 lung = system: NCI-H522 lung
OVCAR-8 ovarian = system: OVCAR-8 ovarian
U251 CNS = system: U251 CNS
UO-31 renal = system: UO-31 renal
SR leukemia = system: SR leukemia
SF-268 CNS = system: SF-268 CNS
SF-295 CNS = system: SF-295 CNS
HCT-15 colon = system: HCT-15 colon
MDA-MB-435 = system: MDA-MB-435
BT-549 breast = system: BT-549 breast
HCC-2998 colon = system: HCC-2998 colon
UACC-257 melanoma = system: UACC-257 melanoma
IGROV1 ovarian = system: IGROV1 ovarian
HL-60(TB) leukemia = system: HL-60(TB) leukemia
A549 NSCLC = system: A549 NSCLC
OVCAR-5 ovarian = system: OVCAR-5 ovarian
LOX IMVI melanoma = system: LOX IMVI melanoma
MOLT-4 leukemia = system: MOLT-4 leukemia
SK-MEL-5 melanoma = system: SK-MEL-5 melanoma
HOP-92 NSCLC = system: HOP-92 NSCLC
NCI/ADR-RES ovarian = system: NCI/ADR-RES ovarian
A498 renal = system: A498 renal
OVCAR-3 ovarian = system: OVCAR-3 ovarian
NCI-H460 lung = system: NCI-H460 lung
SK-MEL-2 melanoma = system: SK-MEL-2 melanoma
KM12 colon = system: KM12 colon
CCRF-CEM leukemia = system: CCRF-CEM leukemia
COLO 205 colon = system: COLO 205 colon
RPMI-8226 leukemia = system: RPMI-8226 leukemia
PC-3 prostate = system: PC-3 prostate
SNB-75 CNS = system: SNB-75 CNS

Cc1cc(C(NC(=O)C2CC3(CC(Nc4cccc5c4C(=O)N(C4CCC(=O)NC4=O)C5=O)C3)C2)c2ccc3c(c2)OC(F)(F)O3)c(O)c2ncccc12 (stereo not drawn)
3180 nM: TGI (SF-539 CNS)
active: GI50 (MCF7 breast) 303 nM | GI50 (SK-MEL-28 melanoma) 405 nM | GI50 (SK-OV-3 ovarian) 344 nM | GI50 (EKVX NSCLC) 349 nM | GI50 (HOP-62 NSCLC) 392 nM | GI50 (T-47D breast) 393 nM | GI50 (NCI-H23 lung) 352 nM | GI50 (SN12C renal) 349 nM | GI50 (ACHN renal) 359 nM | GI50 (M14 melanoma) 411 nM | GI50 (SF-539 CNS) 378 nM | GI50 (K-562 leukemia) 334 nM | GI50 (UACC-62 melanoma) 282 nM | GI50 (SNB-19 CNS) 350 nM | GI50 (HCT-116 colon) 420 nM | GI50 (NCI-H522 lung) 399 nM | GI50 (OVCAR-8 ovarian) 364 nM | GI50 (U251 CNS) 210 nM | GI50 (UO-31 renal) 295 nM | GI50 (SR leukemia) 340 nM | GI50 (SF-268 CNS) 420 nM | GI50 (SF-295 CNS) 275 nM | GI50 (HCT-15 colon) 307 nM | GI50 (MDA-MB-435) 426 nM | GI50 (BT-549 breast) 224 nM | GI50 (HCC-2998 colon) 340 nM | GI50 (IGROV1 ovarian) 313 nM | GI50 (HL-60(TB) leukemia) 314 nM | GI50 (A549 NSCLC) 418 nM | GI50 (LOX IMVI melanoma) 272 nM | GI50 (MOLT-4 leukemia) 344 nM | GI50 (SK-MEL-5 melanoma) 226 nM | GI50 (HOP-92 NSCLC) 382 nM | GI50 (OVCAR-3 ovarian) 376 nM | GI50 (NCI-H460 lung) 198 nM | GI50 (SK-MEL-2 melanoma) 375 nM | GI50 (CCRF-CEM leukemia) 390 nM | GI50 (RPMI-8226 leukemia) 350 nM | GI50 (PC-3 prostate) 275 nM | GI50 (SNB-75 CNS) 289 nM
3130 nM: TGI (MDA-MB-468 breast)
562 nM: TGI (SK-MEL-5 melanoma)
2290 nM: TGI (UO-31 renal)
> 22300 nM: TGI (SK-OV-3 ovarian)
> 40600 nM: TGI (EKVX NSCLC)
> 30700 nM: TGI (RXF 393 renal)
> 100000 nM: TGI (MCF7 breast) | TGI (SK-MEL-28 melanoma) | TGI (HOP-62 NSCLC) | TGI (T-47D breast) | TGI (SN12C renal) | TGI (ACHN renal) | TGI (HS 578T breast) | TGI (DU-145 prostate) | TGI (HT29 colon) | TGI (786-0 renal) | TGI (K-562 leukemia) | TGI (SW-620 colon) | TGI (OVCAR-4 ovarian) | TGI (SNB-19 CNS) | TGI (HCT-116 colon) | TGI (TK-10 renal) | TGI (NCI-H522 lung) | TGI (OVCAR-8 ovarian) | TGI (U251 CNS) | TGI (SR leukemia) | TGI (SF-268 CNS) | TGI (SF-295 CNS) | TGI (HCT-15 colon) | TGI (MDA-MB-435) | TGI (BT-549 breast) | TGI (UACC-257 melanoma) | TGI (A549 NSCLC) | TGI (OVCAR-5 ovarian) | TGI (MOLT-4 leukemia) | TGI (HOP-92 NSCLC) | TGI (A498 renal) | TGI (OVCAR-3 ovarian) | TGI (NCI-H460 lung) | TGI (SK-MEL-2 melanoma) | TGI (KM12 colon) | TGI (CCRF-CEM leukemia) | TGI (COLO 205 colon) | TGI (RPMI-8226 leukemia) | TGI (PC-3 prostate) | TGI (SNB-75 CNS)
5540 nM: TGI (NCI-H23 lung)
2660 nM: TGI (M14 melanoma)
> 32300 nM: TGI (IGROV1 ovarian)
1140 nM: TGI (UACC-62 melanoma)
inactive: GI50 (HS 578T breast) 433 nM | GI50 (NCI-H226 lung) 434 nM | GI50 (MDA-MB-231 breast) 440 nM | GI50 (DU-145 prostate) 461 nM | GI50 (MALME-3M melanoma) 522 nM | GI50 (RXF 393 renal) 502 nM | GI50 (HT29 colon) 474 nM | GI50 (MDA-MB-468 breast) 473 nM | GI50 (786-0 renal) 452 nM | GI50 (SW-620 colon) 531 nM | GI50 (OVCAR-4 ovarian) 476 nM | GI50 (TK-10 renal) 474 nM | GI50 (UACC-257 melanoma) 718 nM | GI50 (OVCAR-5 ovarian) 447 nM | GI50 (NCI/ADR-RES ovarian) 1600 nM | GI50 (A498 renal) > 100000 nM | GI50 (KM12 colon) 468 nM | GI50 (COLO 205 colon) 437 nM
> 42700 nM: TGI (MDA-MB-231 breast)
> 23900 nM: TGI (NCI-H226 lung)
> 25400 nM: TGI (MALME-3M melanoma)
15300 nM: TGI (NCI/ADR-RES ovarian)
